± gives the expanded uncertainty stated by the source.
How the values were obtained:
[1] = Crystal; DTA
[2] = Molar enthalpy of transition or fusion; conditions: Crystal; DSC

Normal melting temperature [1]: 167.01 ± 1.1 °C | Molar enthalpy of transition or fusion [2]: 12.1 ± 0.526 kcal/mol
SMILES: O=C(O)[C@]1(O)C[C@@H](O)[C@@H](O)[C@H](O)C1

From the NIST ThermoML archive (doi:10.1016/j.jct.2016.04.002)
